Data: the NIST ThermoML archive (doi:10.1021/je049932z)
Numbers after ± are expanded uncertainties.

Assays:
[1] = 293.15 K
[2] = wn = mass fraction of the nth substance listed; conditions: 293.15 K; for mass density / viscosity: 101.3 kPa, Liquid

CCOCCOCCOCC [diethylene glycol diethyl ether]
Conditions	surface tension liquid-gas [mN/m]
[1]	29.27 ± 1.6

[1], 101.3 kPa, Liquid
Conditions	mass density [kg/m3]	viscosity [mPa·s]
–	907.3 ± 4.2	1.346 ± 0.042

CCOCCOCCOCC [diethylene glycol diethyl ether] + O
[2]
Conditions	mass density [kg/m3]	surface tension liquid-gas [mN/m]	viscosity [mPa·s]
w1 = 0.0033	–	69.73 ± 2.8	–
w1 = 0.00984	–	66.53 ± 2.7	–
w1 = 0.01771	–	56.82 ± 2.4	–
w1 = 0.03207	–	45.57 ± 2.1	–
w1 = 0.05896	996.7 ± 4.8	36.39 ± 1.8	1.18 ± 0.037
w1 = 0.07683	996.9 ± 4.8	–	1.265 ± 0.039
w1 = 0.1038	997.1 ± 4.8	–	1.451 ± 0.044
w1 = 0.1227	997.2 ± 4.8	–	1.551 ± 0.047
w1 = 0.1425	998.2 ± 4.8	–	1.701 ± 0.051
w1 = 0.1611	998.5 ± 4.8	35.71 ± 1.8	1.839 ± 0.055
w1 = 0.1951	998.6 ± 4.8	–	2.149 ± 0.063
w1 = 0.2207	999.3 ± 4.8	–	2.414 ± 0.071
w1 = 0.2547	999.1 ± 4.8	34.92 ± 1.8	2.707 ± 0.079
w1 = 0.2828	999.8 ± 4.8	–	2.961 ± 0.086
w1 = 0.3185	999.5 ± 4.8	–	3.302 ± 0.095
w1 = 0.3578	999.1 ± 4.8	34.11 ± 1.8	3.637 ± 0.1
w1 = 0.3773	996.6 ± 4.8	–	3.781 ± 0.11
w1 = 0.4231	994.6 ± 4.8	–	4.088 ± 0.12
w1 = 0.4474	993.1 ± 4.8	32.3 ± 1.7	4.218 ± 0.12
w1 = 0.5151	989 ± 4.7	–	4.462 ± 0.13
w1 = 0.5769	981.1 ± 4.7	30.54 ± 1.7	4.452 ± 0.13
w1 = 0.6029	979.1 ± 4.7	–	4.403 ± 0.12
w1 = 0.6385	973.1 ± 4.6	30.21 ± 1.6	4.27 ± 0.12
w1 = 0.6814	966.4 ± 4.6	–	4.033 ± 0.12
w1 = 0.7256	960.1 ± 4.6	–	3.741 ± 0.11
w1 = 0.7794	949.6 ± 4.5	30.46 ± 1.6	3.189 ± 0.092
w1 = 0.8549	940.7 ± 4.4	30.2 ± 1.6	2.599 ± 0.076
w1 = 0.9195	926.2 ± 4.3	–	1.943 ± 0.058
w1 = 0.9401	920.7 ± 4.3	30.01 ± 1.6	1.75 ± 0.05
w1 = 0.9769	912.8 ± 4.3	–	1.467 ± 0.045
w1 = 1	907.3 ± 4.2	29.27 ± 1.6	1.346 ± 0.042

O [water]
Conditions	surface tension liquid-gas [mN/m]
[1]	72.75 ± 2.8

Conditions	viscosity [mPa·s]
[1], 101.3 kPa, Liquid	1.002 ± 0.032

O [water] + CCOCCOCCOCC
[2], w2 = 0
Conditions	mass density [kg/m3]	surface tension liquid-gas [mN/m]	viscosity [mPa·s]
–	997.2 ± 4.8	72.75 ± 2.8	1.002 ± 0.032
